Where a name gives a salt, the structure may show the parent alone. One block for each molecule: values may come before it.
Legend:
[1] = Storage stability of lyophilized hydrochloride salts (purity by HPLC); type: physicochemical; settings: for storage stability compared to the trihydrochloride salt: stored for 12 months at either room temperature or 2 to 8° C.
Experimental: (§1) All solvents were HPLC grade and were purchased from Honeywell Burdick & Jackson (Muskegon, Mich. 49442). Phosphoric acid (85% w/w) and sodium dihydrogen phosphate were HPLC grade and were purchased from Fluka (Sigma-Aldrich, St. Louis, Mo. 63103). All reagents were used without further purification.
(§2) Test samples were filtered through a 0.2 μm polyvinylidene fluoride (PVDF) filter before analysis and the first 1 mL was discarded.
(§3) Test sample purity was determined based on the integrated peak area (area-under-the-curve or AUC) for the compound as a percentage of all integrated peaks. The concentration (assay value) of the compound in a test sample was determined by comparison with a reference standard.
(§4) One rack was stored protected from light in a drawer at room temperature and the other rack was stored in a refrigerator at 2 to 8° C. A representative vial of each type of stability sample was analyzed by HPLC after storage for 1, 3, 6 and 12 months to determine purity.

[2] = Storage stability of hydrochloride salts in a lyophilized composition containing sucrose and glycine (purity by HPLC); type: physicochemical; settings: for Δ (change in percent purity from time = 0) / Purity (HPLC area percent): composition containing sucrose and glycine; for decrease in purity: formulated with sucrose and glycine; for storage stability when formulated with sucrose and glycine: compared to the salt alone
Experimental: as §1, §2, §3, §4

[3] = refrigerated temperature (2 to 8° C.), 1 month, dihydrochloride
[4] = refrigerated temperature (2 to 8° C.), 3 months, dihydrochloride
[5] = refrigerated temperature (2 to 8° C.), 6 months, dihydrochloride
[6] = refrigerated temperature (2 to 8° C.), 12 months, dihydrochloride
[7] = room temperature, 1 month, dihydrochloride
[8] = room temperature, 1 month, listed as Di HCl, dihydrochloride
[9] = room temperature, 3 months, dihydrochloride
[10] = room temperature, 3 months, listed as Di HCl, dihydrochloride
[11] = room temperature, 6 months, dihydrochloride
[12] = room temperature, 6 months, listed as Di HCl, dihydrochloride
[13] = room temperature, 12 months, dihydrochloride
[14] = room temperature, 12 months, listed as Di HCl, dihydrochloride
[15] = stored at 2 to 8° C. for 12 months, listed as dihydrochloride salt, dihydrochloride
[16] = stored at room temperature for 12 months, listed as dihydrochloride salt, dihydrochloride
[17] = stored at room temperature for 12 months
[18] = refrigerated temperature (2 to 8° C.), 1 month, monohydrochloride
[19] = refrigerated temperature (2 to 8° C.), 3 months, monohydrochloride
[20] = refrigerated temperature (2 to 8° C.), 6 months, monohydrochloride
[21] = refrigerated temperature (2 to 8° C.), 12 months, monohydrochloride
[22] = room temperature, 1 month, listed as Mono HCl, monohydrochloride
[23] = room temperature, 1 month, monohydrochloride
[24] = room temperature, 3 months, listed as Mono HCl, monohydrochloride
[25] = room temperature, 3 months, monohydrochloride
[26] = room temperature, 6 months, listed as Mono HCl, monohydrochloride
[27] = room temperature, 6 months, monohydrochloride
[28] = room temperature, 12 months, listed as Mono HCl, monohydrochloride
[29] = room temperature, 12 months, monohydrochloride
[30] = stored at 2 to 8° C. for 12 months, listed as monohydrochloride salt, monohydrochloride
[31] = stored at room temperature for 12 months, listed as monohydrochloride salt, monohydrochloride

Purity (HPLC area percent) [1, 3]: 89.9% | Δ (change in percent purity from time = 0) [1, 3]: −0.2% | Purity (HPLC area percent) [1, 4]: 89.4% | Δ (change in percent purity from time = 0) [1, 4]: −0.7% | Δ (change in percent purity from time = 0) [1, 5]: 0.7% | Purity (HPLC area percent) [1, 6]: 87.2% | Δ (change in percent purity from time = 0) [1, 6]: −2.9% | Purity (HPLC area percent) ([1]; refrigerated temperature (2 to 8° C.), time 0 months, dihydrochloride): 90.1% | Purity (HPLC area percent) [1, 7]: 85.3% | Δ (change in percent purity from time = 0) [1, 7]: −4.8% | Purity (HPLC area percent) [1, 8]: 85.3% | Δ (change in percent purity from time = 0) [1, 8]: −4.8% | Purity (HPLC area percent) [1, 9]: 82.5% | Δ (change in percent purity from time = 0) [1, 9]: −7.6% | Purity (HPLC area percent) [1, 10]: 82.5% | Δ (change in percent purity from time = 0) [1, 10]: −7.6% | Purity (HPLC area percent) [1, 11]: 81.4% | Δ (change in percent purity from time = 0) [1, 11]: −8.7% | Purity (HPLC area percent) [1, 12]: 81.4% | Δ (change in percent purity from time = 0) [1, 12]: −8.7% | Purity (HPLC area percent) [1, 13]: 69.6% | Δ (change in percent purity from time = 0) [1, 13]: −20.5% | Purity (HPLC area percent) [1, 14]: 69.6% | Δ (change in percent purity from time = 0) [1, 14]: −20.5% | Purity (HPLC area percent) ([1]; room temperature, time 0 months, dihydrochloride): 90.1% | Purity (HPLC area percent) ([1]; room temperature, time 0 months, listed as Di HCl, dihydrochloride): 90.1% | decrease in purity [1, 15]: 2.9% | decrease in purity [1, 16]: 20.5% | Δ (change in percent purity from time = 0) [2, 3]: −0.3% | Purity (HPLC area percent) [2, 4]: 89.4% | Δ (change in percent purity from time = 0) [2, 4]: −0.7% | Δ (change in percent purity from time = 0) [2, 5]: 0.7% | Purity (HPLC area percent) [2, 6]: 87.2% | Δ (change in percent purity from time = 0) [2, 6]: −2.9% | Δ (change in percent purity from time = 0) [2, 7]: −0.8% | Δ (change in percent purity from time = 0) [2, 9]: −2.9% | Δ (change in percent purity from time = 0) [2, 11]: 0.2% | Δ (change in percent purity from time = 0) [2, 13]: −6.8% | decrease in purity [2, 15]: 2.9% | decrease in purity [2, 16]: 6.8% | storage stability when formulated with sucrose and glycine [2, 17]: more stable
SMILES: CN[C@H](CC(C)C)C(=O)NC1C(=O)N[C@@H](CC(N)=O)C(=O)N[C@H]2C(=O)N[C@H]3C(=O)N[C@H](C(=O)N[C@H](C(=O)NCCCO/N=C(\C(=O)N[C@@H]4C(=O)N5C(C(=O)[O-])=C(C[n+]6ccccc6)CS[C@H]45)c4nc(N)sc4Cl)c4cc(O)cc(O)c4-c4cc3ccc4O)[C@H](O)c3ccc(c(Cl)c3)Oc3cc2cc(c3O[C@@H]2O[C@H](CO)[C@@H](O)[C@H](O)[C@H]2O[C@H]2C[C@](C)(N)[C@H](O)[C@H](C)O2)Oc2ccc(cc2Cl)[C@H]1O (stereo partly drawn) [Dihydrochloride, 26-[[[3-[[(Z)-[1-(2-amino-5-chloro-4-thiazolyl)-2-[[(6R,7R)-2-carboxy-8-oxo-3-(pyridiniomethyl)-5-thia-1-azabicyclo[4.2.0]oct-2-en-7-yl]amino]-2-oxoethylidene]amino]oxy]propyl]amino]carbonyl]-26-decarboxyvancomycin dihydrochloride]
storage stability compared to the trihydrochloride salt [1]: significantly more stable than the trihydrochloride salt

Purity (HPLC area percent) [1, 18]: 90.0% | Δ (change in percent purity from time = 0) [1, 18]: −0.4% | Purity (HPLC area percent) [1, 19]: 90.2% | Δ (change in percent purity from time = 0) [1, 19]: −0.2% | Δ (change in percent purity from time = 0) [1, 20]: 0.0% | Purity (HPLC area percent) [1, 21]: 87.4% | Δ (change in percent purity from time = 0) [1, 21]: −3.0% | Purity (HPLC area percent) [1, 22]: 89.3% | Δ (change in percent purity from time = 0) [1, 22]: −1.1% | Purity (HPLC area percent) [1, 23]: 89.3% | Δ (change in percent purity from time = 0) [1, 23]: −1.1% | Purity (HPLC area percent) [1, 24]: 82.0% | Δ (change in percent purity from time = 0) [1, 24]: −8.4% | Purity (HPLC area percent) [1, 25]: 82.0% | Δ (change in percent purity from time = 0) [1, 25]: −8.4% | Purity (HPLC area percent) [1, 26]: 79.9% | Δ (change in percent purity from time = 0) [1, 26]: −10.5% | Purity (HPLC area percent) [1, 27]: 79.9% | Δ (change in percent purity from time = 0) [1, 27]: −10.5% | Purity (HPLC area percent) [1, 28]: 67.0% | Δ (change in percent purity from time = 0) [1, 28]: −23.4% | Purity (HPLC area percent) [1, 29]: 67.0% | Δ (change in percent purity from time = 0) [1, 29]: −23.4% | decrease in purity [1, 30]: 3.0% | decrease in purity [1, 31]: 23.4% | Purity (HPLC area percent) [2, 18]: 90.7% | Δ (change in percent purity from time = 0) [2, 18]: 0.3% | Purity (HPLC area percent) [2, 19]: 88.9% | Δ (change in percent purity from time = 0) [2, 19]: −1.5% | Purity (HPLC area percent) [2, 20]: 91.7% | Δ (change in percent purity from time = 0) [2, 20]: 1.3% | Purity (HPLC area percent) [2, 21]: 88.5% | Δ (change in percent purity from time = 0) [2, 21]: −1.9% | Purity (HPLC area percent) [2, 23]: 89.0% | Δ (change in percent purity from time = 0) [2, 23]: −1.4% | Δ (change in percent purity from time = 0) [2, 25]: −3.5% | Δ (change in percent purity from time = 0) [2, 27]: −2.5% | Δ (change in percent purity from time = 0) [2, 29]: −8.9% | decrease in purity [2, 30]: 1.9% | decrease in purity [2, 31]: 8.9% | storage stability when formulated with sucrose and glycine [2, 17]: more stable
SMILES: CN[C@H](CC(C)C)C(=O)N[C@H]1C(=O)N[C@@H](CC(N)=O)C(=O)N[C@H]2C(=O)N[C@H]3C(=O)N[C@H](C(=O)N[C@H](C(=O)NCCCO/N=C(\C(=O)N[C@@H]4C(=O)N5C(C(=O)[O-])=C(C[n+]6ccccc6)CS[C@H]45)c4nc(N)sc4Cl)c4cc(O)cc(O)c4-c4cc3ccc4O)[C@H](O)c3ccc(c(Cl)c3)Oc3cc2cc(c3O[C@@H]2O[C@H](CO)[C@@H](O)[C@H](O)[C@H]2O[C@H]2C[C@](C)(N)[C@H](O)[C@H](C)O2)Oc2ccc(cc2Cl)[C@H]1O [Monohydrochloride, 26-[[[3-[[(Z)-[1-(2-amino-5-chloro-4-thiazolyl)-2-[[(6R,7R)-2-carboxy-8-oxo-3-(pyridiniomethyl)-5-thia-1-azabicyclo[4.2.0]oct-2-en-7-yl]amino]-2-oxoethylidene]amino]oxy]propyl]amino]carbonyl]-26-decarboxyvancomycin monohydrochloride]
storage stability compared to the trihydrochloride salt [1]: significantly more stable than the trihydrochloride salt
